These results are taken from patent US11917995B2, “Fungicidal compositions of mefentrifluconazole” (BASF AGRO B.V., priority 2018, dated 2024).

What all share (format): cell-based
One test has as its system Septoria tritici. Kind of test: Microtest: activity against leaf blotch on wheat caused by Septoria tritici (Septtr). Conditions: single active compound, 0.001 ppm; 7 days after inoculation. As to the method:
(§1) The visually determined percentages of infected leaf areas are converted into efficacies in % of the untreated control.
(§2) The efficacy (E) is calculated as follows using Abbot's formula: E=(1−α/β·100 • α corresponds to the fungicidal infection of the treated plants in % and • β corresponds to the fungicidal infection of the untreated (control) plants in %
(§3) An efficacy of 0 means that the infection level of the treated plants corresponds to that of the untreated control plants; an efficacy of 100 means that the treated plants were not infected. The expected efficacies of active compound combinations may be determined using Colby's formula (Colby, S. R. “Calculating synergistic and antagonistic responses of herbicide combinations”, Weeds, 15, pp. 20-22, 1967) and compared with the observed efficacies. […]
The stock solutions were mixed according to the ratio, pipetted onto a micro titer plate (MTP) and diluted with water to the stated concentrations. […] Using an absorption photometer, the MTPs were measured at 405 nm 7 days after the inoculation.
(§4) The measured parameters were compared to the growth of the active compound-free control variant (100%) and the fungus-free and active compound-free blank value to determine the relative growth in % of the pathogens in the respective active compounds.

Another test has as its system Colletotrichum truncatum. Put plainly: Microtiterplate test: activity against Colletotrichum truncatum (Colldu). As to conditions: single active compound, 7 days after inoculation. How it is done:
as §1, §2
(§5) An efficacy of 0 means that the infection level of the treated plants corresponds to that of the untreated control plants; an efficacy of 100 means that the treated plants were not infected. The expected efficacies of active compound combinations may be determined using Colby's formula (Colby, S. R. “Calculating synergistic and antagonistic responses of herbicide combinations”, Weeds, 15, pp. 20-22, 1967) and compared with the observed efficacies.
(§6) Colby's formula: E=x+y−x·y/100 • E expected efficacy, expressed in % of the untreated control, when using the mixture of the active compounds A and B at the concentrations a and b • x efficacy, expressed in % of the untreated control, when using the active compound A at the concentration a • y efficacy, expressed in % of the untreated control, when using the active compound B at the concentration b.
(§7) The active compounds were formulated separately as a stock solution having a concentration of 10000 ppm in dimethyl sulfoxide.
(§8) The stock solutions were mixed according to the ratio, pipetted onto a micro titer plate(MTP) and diluted with water to the stated concentrations. Spores of the respective pathogen in an aqueous biomalt or yeast-bactopeptone-glycerine solution were then added. The plates were placed in a water vapor-saturated chamber at a temperature of 18° C. Using an absorption photometer, the MTPs were measured at 405 nm 7 days after the inoculation.
as §4

The test system of test [1] is Colletotrichum orbicularum. Kind of test: Microtiterplate test: activity against Colletotrichum orbicularum (Collla). Conditions: single active compound, 7 days after inoculation. How it is done:
as §1, §2, §5, §6, §7, §8, §4

For another test, the system named is Sclerotinia sclerotiorum. Put plainly: Microtiterplate test: activity against Sclerotinia sclerotiorum (Sclesc). As to conditions: single active compound, 0.25 ppm; 7 days after inoculation. As to the method:
as §1, §2, §3
The stock solutions were mixed according to the ratio, pipetted onto a micro titer plate(MTP) and diluted with water to the stated concentrations. […] Using an absorption photometer, the MTPs were measured at 405 nm 7 days after the inoculation.
as §4

Take `CC(O)(Cn1cncn1)c1ccc(Oc2ccc(Cl)cc2)cc1C(F)(F)F` (stereo not drawn) [Mefentrifluconazole, mefentrifluconazole]: the Observed efficacy in the test with Septoria tritici stood at 0%; in the test on Colletotrichum truncatum (0.063 ppm), 0%; with Colletotrichum truncatum (0.25 ppm) it was 8%; in the test with Colletotrichum truncatum (1 ppm), 18%; in the test with Colletotrichum truncatum (4 ppm), 28%; in test [1] (0.25 ppm) it was 7%. The results for the Observed efficacy (in test [1] (1 ppm); in the test with Sclerotinia sclerotiorum) were 25% and 1%, respectively.

Consider `CCN(C)C=Nc1cc(C)c(Oc2ccccc2)cc1C` [II-3, N′-(2,5-dimethyl-4-phenoxy-phenyl)-N-ethyl-N-methyl-formamidine], for which the Observed efficacy with Septoria tritici came to 5%; with Colletotrichum truncatum (4 ppm), 16%; in test [1] (0.25 ppm), 19%; in the test with Sclerotinia sclerotiorum, 11%.
